# Data as given in patent publication US6706663B2, “Herbicidal 3-heterocyclic substituted benzisothiazole and benzisoxazole compounds” (Wyeth, priority 2000, dated 2004).
# What was measured:
# [1] = test system: TRZAWR (Wheat, Winter, cv Riband); assay: Preemergence herbicidal evaluation; assay type: in vivo, Triticum aestivum; conditions: rated 4-5 weeks after treatment
# Outline: (§1)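 Each species was sown separately in potting soil over roughly one inch of soil, and the surface sprayed with compound dissolved in aqueous acetone. Assessment used a 0–9 visual scale against a control after four to five weeks.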
# [2] = test system: SAGPY (Sagittaria pygmaea); assay: Flooded paddy, preemergence weed control; assay type: in vivo, L.; conditions: rate 0.0080 kg/ha, rated 3-4 weeks after treatment, 0-9 rating scale
# Outline: (§2)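 Visual 0-9 rating versus control, scoring stand, vigor, malformation, size, chlorosis and overall appearance. Silt loam soil, propagules in top 0.5 cm; flood depth 1.5–3 cm held for the whole test; greenhouse.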
# [3] = test system: IPOHE (Ipomoea hederacea); assay: Postemergence herbicidal evaluation; assay type: in vivo, (L.) Jacq.; conditions: for IPOHE herbicidal rating: postemergence
# Outline: (§3)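 Seedlings grown for about two weeks were sprayed postemergence and then kept under standard greenhouse care. Injury was rated visually 4–5 weeks after treatment on a 0–9 scale against untreated controls, and ratings from repeat tests were averaged.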
# [4] = test system: CHEAL (Chenopodium album); assay: Postemergence herbicidal evaluation; assay type: in vivo, L.; conditions: for CHEAL herbicidal rating: postemergence
# Outline: as §3
# [5] = test system: CASOB (Cassia obtusifolia); assay: Postemergence herbicidal evaluation; assay type: in vivo, L.; conditions: for CASOB herbicidal rating: postemergence
# Outline: as §3
# [6] = test system: AMBEL (Ambrosia artemisifolia); assay: Postemergence herbicidal evaluation; assay type: in vivo, L.; conditions: for AMBEL herbicidal rating: postemergence
# Outline: as §3
# [7] = test system: TRZAWR (Wheat, Winter, cv Riband); assay: Postemergence herbicidal evaluation; assay type: in vivo, Triticum aestivum; conditions: for TRZAWR herbicidal rating: postemergence
# Outline: as §3
# ZEAMX (Corn, Field) = assay: Postemergence herbicidal evaluation; assay type: in vivo, Zea mays, L.; conditions: for ZEAMX herbicidal rating: postemergence
# Outline: as §3
# [8] = test system: ECHCG (Echinochloa crus-galli); assay: Postemergence herbicidal evaluation; assay type: in vivo, (L.) Beau; conditions: for ECHCG herbicidal rating: postemergence
# Outline: as §3
# [9] = test system: ABUTH (Abutilon theophrasti); assay: Postemergence herbicidal evaluation; assay type: in vivo, Medic.; conditions: for ABUTH herbicidal rating: postemergence
# Outline: as §3
# [10] = test system: CHEAL (Chenopodium album); assay: Preemergence herbicidal evaluation; assay type: in vivo, L.; conditions: rated 4-5 weeks after treatment
# Outline: as §1
# [11] = test system: CASOB (Cassia obtusifolia); assay: Preemergence herbicidal evaluation; assay type: in vivo, L.; conditions: rated 4-5 weeks after treatment
# Outline: as §1
# [12] = test system: AMBEL (Ambrosia artemisifolia); assay: Preemergence herbicidal evaluation; assay type: in vivo, L.; conditions: rated 4-5 weeks after treatment
# Outline: as §1
# ORYSAT (Rice, Tebonnet) [13] = assay: Postemergence herbicidal evaluation; assay type: in vivo, Oryza sativa, (L.) Tebonnet; conditions: for ORYSAT herbicidal rating: postemergence
# Outline: as §3
# ORYSAT (Rice, Tebonnet) [14] = assay: Preemergence herbicidal evaluation; assay type: in vivo, Oryza sativa, (L.) Tebonnet; conditions: rated 4-5 weeks after treatment
# [15] = test system: CYPSE (Cyperus serotinus); assay: Flooded paddy, preemergence weed control; assay type: in vivo, Rottb.; conditions: rated 3-4 weeks after treatment, 0-9 rating scale
# Outline: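 Herbicidal effect was scored visually on a 0–9 scale against an untreated control 3–4 weeks after treatment. Compounds were applied preemergence as 50/50 v/v aqueous/acetone mixtures into flood water (1.5–3 cm deep over silt loam), at roughly 0.0080 to 0.1250 kg/ha active ingredient.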
# [16] = test system: ABUTH (Abutilon theophrasti); assay: Preemergence herbicidal evaluation; assay type: in vivo, Medic.; conditions: rated 4-5 weeks after treatment
# [17] = test system: ECHORC (Echinochloa oryzoides); assay: Flooded paddy, preemergence weed control; assay type: in vivo, Echinochloa oryzoides (Ard.) Fritsch.; conditions: rated 3-4 weeks after treatment, 0-9 rating scale
# Outline: as §2
# [18] = rate 0.0320 kg/ha, listed as 82
# [19] = rate 0.1250 kg/ha, listed as 82
substance,measurement,setting,value
"1-methyl-3-[3-(1,3-oxathian-2-yl)-1,2-benzisothiazol-5-yl]-6-(trifluoromethyl)uracil S′,S′-dioxide [Compound 35]",TRZAWR preemergence herbicidal rating,[1]; Rate 0.0620 kg/ha,7.0
same,Preemergence herbicidal rating TRZAWR,[1]; Rate 0.0620 kg/ha,0.0
same,TRZAWR preemergence herbicidal rating,[1]; Rate 0.1250 kg/ha,9.0
same,Preemergence herbicidal rating TRZAWR,[1]; Rate 0.1250 kg/ha,0.0
same,TRZAWR preemergence herbicidal rating,[1]; Rate 0.2500 kg/ha,9.0
same,Preemergence herbicidal rating TRZAWR,[1]; Rate 0.2500 kg/ha,0.0
same,"herbicidal rating, SAGPY",[2],0.0
same,IPOHE herbicidal rating,[3]; rate 0.0320 kg/ha,7.0
same,IPOHE herbicidal rating,[3]; rate 0.0620 kg/ha,9.0
same,"Postemergence herbicidal rating, IPOHE",[3]; rate 0.0320 kg/ha,9.0
same,"Postemergence herbicidal rating, IPOHE",[3]; rate 0.0620 kg/ha,9.0
same,CHEAL herbicidal rating,[4]; rate 0.0320 kg/ha,7.0
same,CHEAL herbicidal rating,[4]; rate 0.0620 kg/ha,9.0
same,"Postemergence herbicidal rating, CHEAL",[4]; rate 0.0320 kg/ha,9.0
same,"Postemergence herbicidal rating, CHEAL",[4]; rate 0.0620 kg/ha,9.0
same,CASOB herbicidal rating,[5]; rate 0.0320 kg/ha,4.0
same,CASOB herbicidal rating,[5]; rate 0.0620 kg/ha,4.0
same,"Postemergence herbicidal rating, CASOB",[5]; rate 0.0320 kg/ha,9.0
same,"Postemergence herbicidal rating, CASOB",[5]; rate 0.0620 kg/ha,9.0
same,AMBEL herbicidal rating,[6]; rate 0.0320 kg/ha,4.0
same,AMBEL herbicidal rating,[6]; rate 0.0620 kg/ha,9.0
same,"Postemergence herbicidal rating, AMBEL",[6]; rate 0.0320 kg/ha,9.0
same,"Postemergence herbicidal rating, AMBEL",[6]; rate 0.0620 kg/ha,9.0
same,TRZAWR herbicidal rating,[7]; rate 0.0320 kg/ha,1.5
same,TRZAWR herbicidal rating,[7]; rate 0.0620 kg/ha,1.5
same,"Postemergence herbicidal rating, TRZAWR",[7]; rate 0.0320 kg/ha,7.0
same,"Postemergence herbicidal rating, TRZAWR",[7]; rate 0.0620 kg/ha,7.5
same,ZEAMX herbicidal rating,"ZEAMX (Corn, Field); rate 0.0320 kg/ha",3.0
same,ZEAMX herbicidal rating,"ZEAMX (Corn, Field); rate 0.0620 kg/ha",3.0
same,"Postemergence herbicidal rating, ZEAMX","ZEAMX (Corn, Field); rate 0.0320 kg/ha",7.5
same,"Postemergence herbicidal rating, ZEAMX","ZEAMX (Corn, Field); rate 0.0620 kg/ha",7.5
same,ECHCG herbicidal rating,[8]; rate 0.0320 kg/ha,2.0
same,ECHCG herbicidal rating,[8]; rate 0.0620 kg/ha,3.0
same,"Postemergence herbicidal rating, ECHCG",[8]; rate 0.0320 kg/ha,3.0
same,"Postemergence herbicidal rating, ECHCG",[8]; rate 0.0620 kg/ha,4.0
same,ABUTH herbicidal rating,[9]; rate 0.0320 kg/ha,9.0
same,ABUTH herbicidal rating,[9]; rate 0.0620 kg/ha,9.0
same,"Postemergence herbicidal rating, ABUTH",[9]; rate 0.0320 kg/ha,9.0
same,"Postemergence herbicidal rating, ABUTH",[9]; rate 0.0620 kg/ha,9.0
same,CHEAL preemergence herbicidal rating,[10]; Rate 0.0620 kg/ha,9.0
same,Preemergence herbicidal rating CHEAL,[10]; Rate 0.0620 kg/ha,9.0
same,CHEAL preemergence herbicidal rating,[10]; Rate 0.1250 kg/ha,9.0
same,Preemergence herbicidal rating CHEAL,[10]; Rate 0.1250 kg/ha,9.0
same,CHEAL preemergence herbicidal rating,[10]; Rate 0.2500 kg/ha,9.0
same,Preemergence herbicidal rating CHEAL,[10]; Rate 0.2500 kg/ha,9.0
same,CASOB preemergence herbicidal rating,[11]; Rate 0.0620 kg/ha,7.0
same,Preemergence herbicidal rating CASOB,[11]; Rate 0.0620 kg/ha,0.0
same,CASOB preemergence herbicidal rating,[11]; Rate 0.1250 kg/ha,7.0
same,Preemergence herbicidal rating CASOB,[11]; Rate 0.1250 kg/ha,1.5
same,CASOB preemergence herbicidal rating,[11]; Rate 0.2500 kg/ha,9.0
same,Preemergence herbicidal rating CASOB,[11]; Rate 0.2500 kg/ha,2.0
same,AMBEL preemergence herbicidal rating,[12]; Rate 0.0620 kg/ha,9.0
same,Preemergence herbicidal rating AMBEL,[12]; Rate 0.0620 kg/ha,3.5
same,AMBEL preemergence herbicidal rating,[12]; Rate 0.1250 kg/ha,9.0
same,Preemergence herbicidal rating AMBEL,[12]; Rate 0.1250 kg/ha,5.5
same,AMBEL preemergence herbicidal rating,[12]; Rate 0.2500 kg/ha,9.0
same,Preemergence herbicidal rating AMBEL,[12]; Rate 0.2500 kg/ha,6.5
same,ORYSAT herbicidal rating,"ORYSAT (Rice, Tebonnet) [13]; rate 0.0320 kg/ha",1.5
same,ORYSAT herbicidal rating,"ORYSAT (Rice, Tebonnet) [13]; rate 0.0620 kg/ha",2.5
same,"Postemergence herbicidal rating, ORYSAT","ORYSAT (Rice, Tebonnet) [13]; rate 0.0320 kg/ha",6.5
same,"Postemergence herbicidal rating, ORYSAT","ORYSAT (Rice, Tebonnet) [13]; rate 0.0620 kg/ha",6.5
same,ORYSAT preemergence herbicidal rating,"ORYSAT (Rice, Tebonnet) [14]; Rate 0.0620 kg/ha",5.5
same,Preemergence herbicidal rating ORYSAT,"ORYSAT (Rice, Tebonnet) [14]; Rate 0.0620 kg/ha",0.0
same,ORYSAT preemergence herbicidal rating,"ORYSAT (Rice, Tebonnet) [14]; Rate 0.1250 kg/ha",9.0
same,Preemergence herbicidal rating ORYSAT,"ORYSAT (Rice, Tebonnet) [14]; Rate 0.1250 kg/ha",0.0
same,ORYSAT preemergence herbicidal rating,"ORYSAT (Rice, Tebonnet) [14]; Rate 0.2500 kg/ha",9.0
same,Preemergence herbicidal rating ORYSAT,"ORYSAT (Rice, Tebonnet) [14]; Rate 0.2500 kg/ha",0.0
same,"herbicidal rating, CYPSE",[15]; rate 0.0320 kg/ha,2.0
same,"herbicidal rating, CYPSE",[15]; [18],9.0
same,"herbicidal rating, CYPSE",[15]; rate 0.1250 kg/ha,5.0
same,"herbicidal rating, CYPSE",[15]; [19],9.0
same,ABUTH preemergence herbicidal rating,[16]; Rate 0.0620 kg/ha,9.0
same,Preemergence herbicidal rating ABUTH,[16]; Rate 0.0620 kg/ha,4.5
same,ABUTH preemergence herbicidal rating,[16]; Rate 0.1250 kg/ha,9.0
same,Preemergence herbicidal rating ABUTH,[16]; Rate 0.1250 kg/ha,9.0
same,ABUTH preemergence herbicidal rating,[16]; Rate 0.2500 kg/ha,9.0
same,Preemergence herbicidal rating ABUTH,[16]; Rate 0.2500 kg/ha,9.0
same,"herbicidal rating, ECHORC",[17]; rate 0.0080 kg/ha,0.0
same,"herbicidal rating, ECHORC","[17]; rate 0.0080 kg/ha, listed as 82",7.0
same,"herbicidal rating, ECHORC",[17]; rate 0.0320 kg/ha,5.5
same,"herbicidal rating, ECHORC",[17]; [18],9.0
same,"herbicidal rating, ECHORC",[17]; rate 0.1250 kg/ha,7.5
same,"herbicidal rating, ECHORC",[17]; [19],9.0
